The values below come from patent publication US11964970B1, “7-(4-((5-(3-bromobenzylideneamino)-2-thioxo-1,3,4-thiadiazol-3(2H)-yl)methyl)piperazin-1-yl)-1-cyclopropyl-6-fluoro-4-oxo-1,4-dihydroquinoline-3-carboxylic acid as an anti-inflammatory and anticancer compound” (KING FAISAL UNIVERSITY, priority 2023, dated 2024).

For one series, the target named is Bovine Serum Albumin (Bos taurus, UniProt P02769). The experiment in a line: Bovine Serum Albumin Assay (BSA), inhibition of protein denaturation. Format: biochemical. Conditions: BSA 0.4% w/v, pH 6.4, 72° C. for 10 minutes, 20-100 μg/mL, turbidity at 660 nm. Here is the method:
In vitro-inflammatory activities of the tested samples were determined using a modified method of the BSA assay reported by Williams et al. BSA solution (0.4%, w/v) was prepared in Tris Buffered Saline. The pH was adjusted to 6.4 with glacial acetic acid. Different dilutions of 20, 40, 60, 80, and 100 μg/mL of the stock solutions were added to test tubes containing 1 mL of 0.4%, w/v BSA buffer solution. Both negative (solvent) and positive (aspirin) controls were assayed in a similar manner. The solutions were then heated in a water bath at 72° C. for 10 minutes and cooled for 20 minutes under laboratory conditions. The turbidity of the solutions (level of protein precipitation) was measured at 660 nm in Spectrophotometer (V-770 UV-Visible/NIR Spectrophotometer).
The percentage inhibition of precipitation (protein denaturation) was determined relative to the negative control using the following equation:
[formula] % Anti-Denaturation Activity=% Inhibition of Protein Denaturation=% Anti-inflammatory Activity

For series [1], the system named is human prostate cancer cells (PC3). In words: Assessment of cytotoxicity by SRB assay, PC3. Format: cell-based. Conditions: androgen-independent metastatic human prostate cancer cells (PC3), 72 h, 0.01 μM to 100 μM. Here is the method: (§1) The human prostate cancer cells (PC3) and human osteosarcoma cells (MG-63) were obtained from Nawah Scientific Inc. (Mokatam, Cairo, Egypt) and cultured in DMEM (Dulbecco's modified eagle's medium), Gibco, USA, supplemented with fetal bovine serum (FBS) at a concentration of 10% and 100 U/mL of penicillin and streptomycin (PS). The Cells were incubated at 37° C. in a humidified environment that contained 5% CO2.
(§2) Cells were seeded in 96-well plates as aliquots of 100 μL cell suspension and incubated in a complete media for 24 h. afterward, cells were treated with N′-(1-naphthoyloxy)-2-(benzo[d]thiazol-2-yl)acetimidamide at diverse concentrations ranging from 0.01 μM to 100 μM for 72 h. Then, cells were fixed at 4° C. for one hour with 150 μL of 10% trichloroacetic acid (TCA). After washing the cells five times with distilled water, 70 μL of sulforhodamine (SRB) solution (0.4% w/v) was added and incubated for 10 min at room temperature in a dark place. […] Then, 150 μL of Tris pH 10.5 (10 mM) was added, and the absorbance was measured at 540 nm using a BMG LABTECH®-FLUOstar Omega microplate reader (Ortenberg, Germany). Half maximal inhibitory concentrations (IC50) values were calculated for each experiment using GraphPad Prism 6 software. […]
(§3) The inhibition was calculated using the following equation: Inhibition %=100−Average Viability
In general terms: The SRB assay estimates cell density from bound dye.

For series [2], the system named is human osteosarcoma cells (MG-63). The experiment in a line: Assessment of cytotoxicity by SRB assay, MG-63. Format: cell-based. Conditions: osteosarcoma (MG-63) cells, 72 h, 0.01 μM to 100 μM. As to the method:
as §1, §2, §3

Sequence of Bovine Serum Albumin (P02769 25-607): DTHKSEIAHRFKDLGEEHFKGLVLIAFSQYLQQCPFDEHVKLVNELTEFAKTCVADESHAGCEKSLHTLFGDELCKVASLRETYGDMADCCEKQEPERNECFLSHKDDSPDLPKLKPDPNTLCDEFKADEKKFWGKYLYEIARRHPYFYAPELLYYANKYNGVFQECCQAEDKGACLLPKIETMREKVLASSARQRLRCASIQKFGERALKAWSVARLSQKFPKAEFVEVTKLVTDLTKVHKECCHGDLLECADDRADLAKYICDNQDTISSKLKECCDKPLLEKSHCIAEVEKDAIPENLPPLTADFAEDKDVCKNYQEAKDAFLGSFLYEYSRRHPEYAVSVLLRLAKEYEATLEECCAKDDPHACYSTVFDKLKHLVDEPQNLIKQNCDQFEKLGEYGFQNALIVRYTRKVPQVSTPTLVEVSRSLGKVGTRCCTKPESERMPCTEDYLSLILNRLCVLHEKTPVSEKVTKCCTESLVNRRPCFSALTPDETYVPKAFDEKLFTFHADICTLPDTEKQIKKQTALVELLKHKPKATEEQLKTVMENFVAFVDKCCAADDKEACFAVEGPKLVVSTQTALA

In the case of `O=C(O)c1cn(C2CC2)c2cc(N3CCN(Cn4nc(/N=C/c5cccc(Br)c5)sc4=S)CC3)c(F)cc2c1=O` [7-(4-((5-(3-bromobenzylideneamino)-2-thioxo-1,3,4-thiadiazol-3(2H)-yl)methyl)piperazin-1-yl)-1-cyclopropyl-6-fluoro-4-oxo-1,4-dihydroquinoline-3-carboxylic acid], the melting point (in general, the temperature, or range, at which the solid turns liquid) is 251 to 253 °C. Moreover, on Bovine Serum Albumin, the “in vitro anti-inflammatory activity (inhibition of protein denaturation)” value is on record as “considerable anti-inflammatory effect”. The “antiproliferative activity against PC3 cells” value in series [1] is on record as “excellent antiproliferative activities”. Further, the “antiproliferative activity against MG-63 cells” value in series [2] was “excellent antiproliferative activities”.
